Structures are written as SMILES. *1 amine or outer side, *2 acyl side, *3 side chain or, on linkers, in order; H or OH if unused. Where a SMILES comes first, the peptide text is derived from it. Side-chain parts run from the residue outwards. [ ]: non-standard residue; d: D form. The star is where a group is joined. C20 diacid = O=C(O)CCCCCCCCCCCCCCCCCCC(=O)*; C18 diacid = O=C(O)CCCCCCCCCCCCCCCCC(=O)*; γGlu = O=C(O)[C@H](CCC(=O)[*:2])N[*:1]; 4Pal = N[C@@H](Cc1ccncc1)C(=O)O; αMeL = CC(C)C[C@](C)(N)C(=O)O; Orn = NCCC[C@H](N)C(=O)O; AEEA = NCCOCCOCC(=O)O; Aib = CC(C)(N)C(=O)O Where only a bound is given, the exact number is not on record here.

For six compounds, Ki results are on record in patent publication US12723063B2, “GIPR-agonist compounds” (Eli Lilly and Company, priority 2019, dated 2026).

In one experiment the target is T1, human GcgR (Homo sapiens, UniProt P47871).
T1 construct: expressed in transfected cells; crude membranes
The experiment is described as follows: [125I]-Glucagon binding, SPA with WGA beads, 0.1% bacitracin. The following applies: geometric mean, read-out: hGcgR Ki. The method in brief:
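SPA competition binding with WGA beads on crude membranes from HEK293 cells stably expressing hGcgR. Buffer: 25 mM HEPES pH 7.4, 2.5 mM CaCl2, 1 mM MgCl2, 0.1% bacitracin, 0.003% Tween-20; 10-point 3-fold dilutions, NSB with 1 μM Gcg.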

Another experiment concerns the target T2, human GIPR (Homo sapiens, UniProt P48546).
T2 construct: expressed in transfected cells; crude membranes
T2 sequence (P48546 22-466): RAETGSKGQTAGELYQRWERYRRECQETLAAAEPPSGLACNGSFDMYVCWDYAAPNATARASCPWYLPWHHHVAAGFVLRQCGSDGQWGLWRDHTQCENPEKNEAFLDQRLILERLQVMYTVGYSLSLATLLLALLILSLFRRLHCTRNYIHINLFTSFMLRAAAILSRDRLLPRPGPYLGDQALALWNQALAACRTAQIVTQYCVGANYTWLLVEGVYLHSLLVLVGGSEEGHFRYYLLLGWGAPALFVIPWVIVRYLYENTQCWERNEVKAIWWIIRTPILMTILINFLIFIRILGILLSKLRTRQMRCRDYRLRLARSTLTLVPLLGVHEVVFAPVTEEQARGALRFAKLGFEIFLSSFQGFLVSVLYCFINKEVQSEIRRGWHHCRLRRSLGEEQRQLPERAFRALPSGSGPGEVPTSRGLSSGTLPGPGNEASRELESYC
The experiment is described as follows: [125I]-GIP binding, SPA with WGA beads, 0.1% bacitracin. The following applies: geometric mean, read-out: hGIPR Ki. In a few lines: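 Ki values are geometric means (SEM, n independent days), derived from four-parameter nonlinear regression of IC50. Membranes came from hGIPR-expressing CHO cells.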

The target of the next experiment is T3, human GLP-1R (Homo sapiens, UniProt P43220).
T3 construct: expressed in transfected cells; crude membranes
The experiment is described as follows: [125I]-GLP-1 binding, SPA with WGA beads, 0.1% bacitracin. The following applies: geometric mean, read-out: hGLP1R Ki. The method in brief:
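Binding buffer was 25 mM HEPES pH 7.4 with 2.5 mM CaCl2, 1 mM MgCl2, 0.1% (w/v) bacitracin, 0.003% Tween-20 and EDTA-free protease inhibitors. Four-parameter regression gave IC50, converted to Ki (geometric mean, SEM, n independent days).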

T3 sequence (P43220 24-463): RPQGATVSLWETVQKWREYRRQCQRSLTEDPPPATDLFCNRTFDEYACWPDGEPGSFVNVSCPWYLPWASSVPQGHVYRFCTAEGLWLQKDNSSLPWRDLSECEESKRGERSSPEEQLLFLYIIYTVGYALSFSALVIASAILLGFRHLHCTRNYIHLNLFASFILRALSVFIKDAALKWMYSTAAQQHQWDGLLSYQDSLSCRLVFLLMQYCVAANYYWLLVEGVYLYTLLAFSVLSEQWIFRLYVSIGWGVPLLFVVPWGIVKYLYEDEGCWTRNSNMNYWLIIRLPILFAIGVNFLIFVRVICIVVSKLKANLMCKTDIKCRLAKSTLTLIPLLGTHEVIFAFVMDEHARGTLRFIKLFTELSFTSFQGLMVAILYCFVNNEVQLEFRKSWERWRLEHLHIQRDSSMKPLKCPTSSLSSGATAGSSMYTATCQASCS
T1 sequence (P47871 26-477): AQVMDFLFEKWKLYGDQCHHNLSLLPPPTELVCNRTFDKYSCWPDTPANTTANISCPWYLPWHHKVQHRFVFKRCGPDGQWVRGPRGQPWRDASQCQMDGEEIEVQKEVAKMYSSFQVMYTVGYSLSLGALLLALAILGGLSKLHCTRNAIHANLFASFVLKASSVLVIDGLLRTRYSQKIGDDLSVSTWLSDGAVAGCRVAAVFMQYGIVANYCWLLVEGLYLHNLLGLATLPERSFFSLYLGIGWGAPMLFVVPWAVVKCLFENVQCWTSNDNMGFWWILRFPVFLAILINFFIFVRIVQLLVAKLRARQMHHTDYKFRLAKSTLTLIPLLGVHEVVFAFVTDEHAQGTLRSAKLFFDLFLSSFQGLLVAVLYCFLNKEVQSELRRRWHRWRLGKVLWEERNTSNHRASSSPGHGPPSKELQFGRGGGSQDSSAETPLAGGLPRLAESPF

As to `CC[C@H](C)[C@H](NC(=O)[C@H](CCCCN)NC(=O)[C@H](CC(=O)O)NC(=O)[C@H](CC(C)C)NC(=O)[C@](C)(CC(C)C)NC(=O)[C@@H](NC(=O)[C@H](CO)NC(=O)[C@H](Cc1ccc(O)cc1)NC(=O)[C@H](CC(=O)O)NC(=O)[C@H](CO)NC(=O)[C@@H](NC(=O)[C@H](Cc1ccccc1)NC(=O)[C@@H](NC(=O)CNC(=O)[C@H](CCC(=O)O)NC(=O)C(C)(C)NC(=O)[C@@H](N)Cc1ccc(O)cc1)[C@@H](C)O)[C@@H](C)CC)[C@@H](C)CC)C(=O)N[C@@H](Cc1c[nH]cn1)C(=O)N[C@@H](CCC(N)=O)C(=O)NC(C)(C)C(=O)N[C@@H](CCC(=O)O)C(=O)N[C@@H](Cc1ccccc1)C(=O)N[C@H](C(=O)N[C@@H](CCC(=O)O)C(=O)N[C@@H](Cc1ccncc1)C(=O)N[C@@H](CCCCNC(=O)COCCOCCNC(=O)COCCOCCNC(=O)CC[C@H](NC(=O)CCCCCCCCCCCCCCCCCCC(=O)O)C(=O)O)C(=O)N[C@@H](CC(C)C)C(=O)N[C@@H](CCC(=O)O)C(=O)NCC(=O)NCC(=O)N1CCC[C@H]1C(=O)N[C@@H](CO)C(=O)N[C@@H](CO)C(=O)NCC(=O)N[C@@H](C)C(=O)N1CCC[C@H]1C(=O)N1CCC[C@H]1C(=O)N1CCC[C@H]1C(=O)N[C@@H](CO)C(N)=O)C(C)C` [Example 100] (H-Y[Aib]EGTFISDYSI[αMeL]LDKIHQ[Aib]EFVE[4Pal]K([AEEA-AEEA-γGlu-C20 diacid])LEGGPSSGAPPPS-NH2), the values for the Ki at human GcgR, at human GIPR and on human GLP-1R were 572 nM, 0.0674 nM and > 913 nM, respectively.
The matching figures for `CC[C@H](C)[C@H](NC(=O)[C@H](CCCN)NC(=O)[C@H](CC(=O)O)NC(=O)[C@H](CC(C)C)NC(=O)[C@](C)(CC(C)C)NC(=O)[C@@H](NC(=O)[C@H](CO)NC(=O)[C@H](Cc1ccc(O)cc1)NC(=O)[C@H](CC(=O)O)NC(=O)[C@H](CO)NC(=O)[C@@H](NC(=O)[C@H](Cc1ccccc1)NC(=O)[C@@H](NC(=O)CNC(=O)[C@H](CCC(=O)O)NC(=O)C(C)(C)NC(=O)[C@@H](N)Cc1ccc(O)cc1)[C@@H](C)O)[C@@H](C)CC)[C@@H](C)CC)C(=O)N[C@@H](Cc1c[nH]cn1)C(=O)N[C@@H](CCC(N)=O)C(=O)NC(C)(C)C(=O)N[C@@H](CC(=O)O)C(=O)N[C@@H](Cc1ccccc1)C(=O)N[C@H](C(=O)N[C@H](CCC(=O)O)C(=O)N[C@@H](Cc1ccc(O)cc1)C(=O)N[C@@H](CCCCNC(=O)COCCOCCNC(=O)COCCOCCNC(=O)CC[C@H](NC(=O)CCCCCCCCCCCCCCCCCCC(=O)O)C(=O)O)C(=O)N[C@@H](CC(C)C)C(=O)N[C@@H](CCC(=O)O)C(=O)NCC(=O)NCC(=O)N1CCC[C@H]1C(=O)N[C@@H](CO)C(=O)N[C@@H](CO)C(=O)NCC(=O)N[C@@H](C)C(=O)N1CCC[C@H]1C(=O)N1CCC[C@H]1C(=O)N1CCC[C@H]1C(=O)N[C@@H](CO)C(N)=O)C(C)C` [Example 101]: > 961 nM, 0.139 nM and > 913 nM.
The matching figures for `CC[C@H](C)[C@H](NC(=O)[C@H](CCCN)NC(=O)[C@H](CC(=O)O)NC(=O)[C@H](CC(C)C)NC(=O)[C@](C)(CC(C)C)NC(=O)[C@@H](NC(=O)[C@H](CO)NC(=O)[C@H](Cc1ccc(O)cc1)NC(=O)[C@H](CC(=O)O)NC(=O)[C@H](CO)NC(=O)[C@@H](NC(=O)[C@H](Cc1ccccc1)NC(=O)[C@@H](NC(=O)CNC(=O)[C@H](CCC(=O)O)NC(=O)C(C)(C)NC(=O)[C@@H](N)Cc1ccc(O)cc1)[C@@H](C)O)[C@@H](C)CC)[C@@H](C)CC)C(=O)N[C@@H](Cc1c[nH]cn1)C(=O)N[C@@H](CCC(N)=O)C(=O)NC(C)(C)C(=O)N[C@@H](CCC(=O)O)C(=O)N[C@@H](Cc1ccccc1)C(=O)N[C@H](C(=O)N[C@H](CCC(=O)O)C(=O)N[C@@H](Cc1ccc(O)cc1)C(=O)N[C@@H](CCCCNC(=O)COCCOCCNC(=O)COCCOCCNC(=O)CC[C@H](NC(=O)CCCCCCCCCCCCCCCCCCC(=O)O)C(=O)O)C(=O)N[C@@H](CC(C)C)C(=O)N[C@@H](CCC(=O)O)C(=O)NCC(=O)NCC(=O)N1CCC[C@H]1C(=O)N[C@@H](CO)C(=O)N[C@@H](CO)C(=O)NCC(=O)N[C@@H](C)C(=O)N1CCC[C@H]1C(=O)N1CCC[C@H]1C(=O)N1CCC[C@H]1C(=O)N[C@@H](CO)C(N)=O)C(C)C` [Example 102] (H-Y[Aib]EGTFISDYSI[αMeL]LD[Orn]IHQ[Aib]EFV[dE]YK([AEEA-AEEA-γGlu-C20 diacid])LEGGPSSGAPPPS-NH2): > 961 nM, 0.164 nM and > 913 nM.
For `CC[C@H](C)[C@H](NC(=O)[C@H](CCCN)NC(=O)[C@H](CC(=O)O)NC(=O)[C@H](CC(C)C)NC(=O)[C@](C)(CC(C)C)NC(=O)[C@@H](NC(=O)[C@H](CO)NC(=O)[C@H](Cc1ccc(O)cc1)NC(=O)[C@H](CC(=O)O)NC(=O)[C@H](CO)NC(=O)[C@@H](NC(=O)[C@H](Cc1ccccc1)NC(=O)[C@@H](NC(=O)CNC(=O)[C@H](CCC(=O)O)NC(=O)C(C)(C)NC(=O)[C@@H](N)Cc1ccc(O)cc1)[C@@H](C)O)[C@@H](C)CC)[C@@H](C)CC)C(=O)N[C@@H](Cc1c[nH]cn1)C(=O)N[C@@H](CCC(N)=O)C(=O)NC(C)(C)C(=O)N[C@@H](CC(=O)O)C(=O)N[C@@H](Cc1ccccc1)C(=O)N[C@H](C(=O)N[C@@H](CCC(=O)O)C(=O)N[C@@H](Cc1ccc(O)cc1)C(=O)N[C@@H](CCCCNC(=O)COCCOCCNC(=O)COCCOCCNC(=O)CC[C@H](NC(=O)CCCCCCCCCCCCCCCCC(=O)O)C(=O)O)C(=O)N[C@@H](CC(C)C)C(=O)N[C@@H](CCC(=O)O)C(=O)NCC(=O)NCC(=O)N1CCC[C@H]1C(=O)N[C@@H](CO)C(=O)N[C@@H](CO)C(=O)NCC(=O)N[C@@H](C)C(=O)N1CCC[C@H]1C(=O)N1CCC[C@H]1C(=O)N1CCC[C@H]1C(=O)N[C@@H](CO)C(N)=O)C(C)C` [Example 103] (H-Y[Aib]EGTFISDYSI[αMeL]LD[Orn]IHQ[Aib]DFVEYK([AEEA-AEEA-γGlu-C18 diacid])LEGGPSSGAPPPS-NH2), in that order: > 960 nM, 0.0405 nM and > 913 nM.
Consider `CC[C@H](C)[C@H](NC(=O)[C@H](CCCN)NC(=O)[C@H](CC(=O)O)NC(=O)[C@H](CC(C)C)NC(=O)[C@](C)(CC(C)C)NC(=O)[C@@H](NC(=O)[C@H](CO)NC(=O)[C@H](Cc1ccc(O)cc1)NC(=O)[C@H](CC(=O)O)NC(=O)[C@H](CO)NC(=O)[C@@H](NC(=O)[C@H](Cc1ccccc1)NC(=O)[C@@H](NC(=O)CNC(=O)[C@H](CCC(=O)O)NC(=O)C(C)(C)NC(=O)[C@@H](N)Cc1ccc(O)cc1)[C@@H](C)O)[C@@H](C)CC)[C@@H](C)CC)C(=O)N[C@@H](Cc1c[nH]cn1)C(=O)N[C@@H](CCC(N)=O)C(=O)NC(C)(C)C(=O)N[C@@H](CCC(=O)O)C(=O)N[C@@H](Cc1ccccc1)C(=O)N[C@H](C(=O)N[C@@H](CCC(=O)O)C(=O)N[C@@H](Cc1ccc(O)cc1)C(=O)N[C@@H](CCCCNC(=O)COCCOCCNC(=O)COCCOCCNC(=O)CC[C@H](NC(=O)CCCCCCCCCCCCCCCCCCC(=O)O)C(=O)O)C(=O)N[C@@H](CC(C)C)C(=O)N[C@@H](CCC(=O)O)C(=O)N[C@@H](C)C(=O)NCC(=O)N1CCC[C@H]1C(=O)N[C@@H](CO)C(=O)N[C@@H](CO)C(=O)NCC(=O)N[C@@H](C)C(=O)N1CCC[C@H]1C(=O)N1CCC[C@H]1C(=O)N1CCC[C@H]1C(=O)N[C@@H](CO)C(N)=O)C(C)C` [Example 104] (H-Y[Aib]EGTFISDYSI[αMeL]LD[Orn]IHQ[Aib]EFVEYK([AEEA-AEEA-γGlu-C20 diacid])LEAGPSSGAPPPS-NH2), for which the Ki – broadly, a dissociation constant, usually derived from enzyme kinetics or from competition with a known ligand – at human GcgR is > 960 nM; at human GIPR, 0.134 nM; on human GLP-1R, > 910 nM.
Regarding `CC[C@H](C)[C@H](NC(=O)[C@H](CCCN)NC(=O)[C@H](CC(=O)O)NC(=O)[C@H](CC(C)C)NC(=O)[C@](C)(CC(C)C)NC(=O)[C@@H](NC(=O)[C@H](CO)NC(=O)[C@H](Cc1ccc(O)cc1)NC(=O)[C@H](CC(=O)O)NC(=O)[C@H](CO)NC(=O)[C@@H](NC(=O)[C@H](Cc1ccccc1)NC(=O)[C@@H](NC(=O)CNC(=O)[C@H](CCC(=O)O)NC(=O)C(C)(C)NC(=O)[C@@H](N)Cc1ccc(O)cc1)[C@@H](C)O)[C@@H](C)CC)[C@@H](C)CC)C(=O)N[C@@H](Cc1c[nH]cn1)C(=O)N[C@@H](CCC(N)=O)C(=O)NC(C)(C)C(=O)N[C@@H](CCC(=O)O)C(=O)N[C@@H](Cc1ccccc1)C(=O)N[C@H](C(=O)N[C@@H](CCC(=O)O)C(=O)N[C@@H](Cc1ccc(O)cc1)C(=O)N[C@@H](CCCCNC(=O)COCCOCCNC(=O)COCCOCCNC(=O)CC[C@H](NC(=O)CCCCCCCCCCCCCCCCCCC(=O)O)C(=O)O)C(=O)N[C@@H](CC(C)C)C(=O)N[C@@H](CCC(=O)O)C(=O)N[C@H](C(=O)NCC(=O)N1CCC[C@H]1C(=O)N[C@@H](CO)C(=O)N[C@@H](CO)C(=O)NCC(=O)N[C@@H](C)C(=O)N1CCC[C@H]1C(=O)N1CCC[C@H]1C(=O)N1CCC[C@H]1C(=O)N[C@@H](CO)C(N)=O)[C@@H](C)O)C(C)C` [Example 105] (H-Y[Aib]EGTFISDYSI[αMeL]LD[Orn]IHQ[Aib]EFVEYK([AEEA-AEEA-γGlu-C20 diacid])LETGPSSGAPPPS-NH2), the Ki at human GcgR is > 960 nM; at human GIPR, 0.174 nM; at human GLP-1R, > 910 nM.
